Source: ChEMBL document CHEMBL3885861, “Open TG-GATES”

Species on record: Rattus norvegicus
Assay: Open TG-GATES - Regimen: Single
Format: toxicity, organism-based, Sprague-Dawley
Parameters: regimen Single, gender Male, age 6 weeks
Conditions: in vivo, po, 1000 mg/kg, route gavage, dose level High; for APTT / Bas / Eos / Fbg / Hb / Ht / Lym / MCH / MCHC / MCV / Mono / Neu / PT / Plat / RBC / Ret / WBC: tissue Blood; for KIDNEY_L / KIDNEY_R / KIDNEY_TOTAL: tissue Kidney; for LIVER: tissue Liver

## C[C@H](CS)C(=O)N1CCC[C@H]1C(=O)O [CAPTOPRIL]
3 h
  APTT: 16 s
  Bas: 0%
  Eos: 1%
  Fbg: 204.8 mg/dL
  Hb: 13.6 g/dL
  Ht: 40.9%
  Lym: 76.8%
  MCH: 21.8 pg
  MCHC: 33.1%
  MCV: 65.9 fL
  Mono: 5.6%
  Neu: 16.4%
  PT: 12.1 s
  Plat: 118.1 x10_4/uL
  RBC: 621.6 x10_4/ul
  Ret: 8.4%
  KIDNEY_L: 1 g
  KIDNEY_R: 1 g
  KIDNEY_TOTAL: 2.1 g
3 h, tissue Plasma
  ALP: 661.2 IU/L
  ALT: 37 IU/L
  AST: 61 IU/L
  BUN: 17.4 mg/dL
  CRE: 0.5 mg/dL
  DBIL: 0.006 mg/dL
  GLC: 213 mg/dL
  IP: 9.8 mg/dL
  K: 5 meq/L
  Na: 137.8 meq/L
  PL: 133.6 mg/dL
  RALB: 3.5 g/dL
  TBIL: 0.5 mg/dL
  TC: 79.4 mg/dL
  TG: 53.8 mg/dL
  TP: 5.5 g/dL
  gamma-GTP: 1.4 IU/L
6 h
  TERMINAL_BW: 215.6 g
  APTT: 16.5 s
  Bas: 0%
  Eos: 1%
  Fbg: 205.6 mg/dL
  Hb: 13.4 g/dL
  Ht: 40.4%
  Lym: 79.6%
  MCH: 21.1 pg
  MCHC: 33.1%
  MCV: 63.9 fL
  Mono: 5.2%
  Neu: 14%
  PT: 12.6 s
  RBC: 632.8 x10_4/ul
  Ret: 8.2%
  WBC: 110.9 x10_2/uL
  KIDNEY_L: 1 g
  KIDNEY_R: 1 g
  KIDNEY_TOTAL: 2 g
  LIVER: 9.6 g
6 h, tissue Plasma
  ALP: 736.6 IU/L
  ALT: 32.8 IU/L
  AST: 57.6 IU/L
  BUN: 21.2 mg/dL
  CRE: 0.6 mg/dL
  DBIL: 0.02 mg/dL
  GLC: 211.4 mg/dL
  IP: 9.8 mg/dL
  K: 4.7 meq/L
  LDH: 110.4 IU/L
  Na: 139.6 meq/L
  PL: 112.8 mg/dL
  RALB: 3.6 g/dL
  TBIL: 0.5 mg/dL
  TC: 62.6 mg/dL
  TG: 48.4 mg/dL
  TP: 5.4 g/dL
  gamma-GTP: 1.6 IU/L
9 h
  TERMINAL_BW: 220.7 g
  APTT: 16.6 s
  Bas: 0%
  Eos: 1%
  Fbg: 201.2 mg/dL
  Hb: 12.7 g/dL
  Ht: 38.9%
  Lym: 77.6%
  MCH: 20.8 pg
  MCHC: 32.7%
  MCV: 63.4 fL
  Mono: 4.8%
  Neu: 16.6%
  PT: 12.4 s
  Plat: 113.6 x10_4/uL
  RBC: 613.4 x10_4/ul
  Ret: 8.7%
  KIDNEY_L: 1 g
  KIDNEY_R: 1 g
  KIDNEY_TOTAL: 2 g
  LIVER: 9.1 g
9 h, tissue Plasma
  ALP: 691.6 IU/L
  ALT: 36 IU/L
  AST: 59.4 IU/L
  BUN: 24.4 mg/dL
  CRE: 0.4 mg/dL
  DBIL: 0.08 mg/dL
  GLC: 192.2 mg/dL
  IP: 11 mg/dL
  K: 5.3 meq/L
  LDH: 76 IU/L
  Na: 140 meq/L
  PL: 118.2 mg/dL
  RALB: 3.4 g/dL
  TBIL: 0.5 mg/dL
  TC: 68.4 mg/dL
  TG: 27.4 mg/dL
  TP: 5.1 g/dL
  gamma-GTP: 1.8 IU/L
24 h
  TERMINAL_BW: 237.2 g
  APTT: 16.4 s
  Bas: 0%
  Eos: 1%
  Hb: 12.8 g/dL
  Ht: 38.5%
  Lym: 79%
  MCH: 21.7 pg
  MCHC: 33.2%
  MCV: 65.3 fL
  Mono: 5.2%
  Neu: 14.8%
  PT: 11.3 s
  Plat: 110.3 x10_4/uL
  RBC: 589.4 x10_4/ul
  Ret: 8.4%
  WBC: 95.8 x10_2/uL
  KIDNEY_L: 1.1 g
  KIDNEY_R: 1.1 g
  KIDNEY_TOTAL: 2.1 g
  LIVER: 11.8 g
24 h, tissue Plasma
  ALP: 971.2 IU/L
  ALT: 39.8 IU/L
  AST: 66.4 IU/L
  BUN: 16.8 mg/dL
  CRE: 0.6 mg/dL
  Ca: 11.1 mg/dL
  DBIL: 0.058 mg/dL
  GLC: 200.4 mg/dL
  IP: 8.6 mg/dL
  K: 4.5 meq/L
  LDH: 100.4 IU/L
  Na: 137.8 meq/L
  PL: 142 mg/dL
  RALB: 3.9 g/dL
  TBIL: 0.3 mg/dL
  TC: 81.4 mg/dL
  TP: 5.7 g/dL
  gamma-GTP: 1.2 IU/L
